Reference: PubChem BioAssay (NCI)
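Method: 48-hour compound exposure of cells in 96-well plates, five concentrations, linear interpolation of endpoints. TGI: total growth inhibition.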

Key:
Test in all cases: NCI tumour cell line growth inhibition, 48 h
U251 CNS = tested on: U251 CNS
SNB-75 CNS = tested on: SNB-75 CNS
EKVX NSCLC = tested on: EKVX NSCLC
UO-31 renal = tested on: UO-31 renal
HOP-18 NSCLC = tested on: HOP-18 NSCLC
KM12 colon = tested on: KM12 colon
SK-OV-3 ovarian = tested on: SK-OV-3 ovarian
TK-10 renal = tested on: TK-10 renal
NCI-H226 lung = tested on: NCI-H226 lung
MOLT-4 leukemia = tested on: MOLT-4 leukemia
DLD-1 colon = tested on: DLD-1 colon
SW-620 colon = tested on: SW-620 colon
OVCAR-5 ovarian = tested on: OVCAR-5 ovarian
RXF 393 renal = tested on: RXF 393 renal
SR leukemia = tested on: SR leukemia
M14 melanoma = tested on: M14 melanoma
SNB-19 CNS = tested on: SNB-19 CNS
HT29 colon = tested on: HT29 colon
UACC-62 melanoma = tested on: UACC-62 melanoma
RXF-631 renal = tested on: RXF-631 renal
M19-MEL melanoma = tested on: M19-MEL melanoma
DMS 114 small cell lung = tested on: DMS 114 small cell lung
A549 NSCLC = tested on: A549 NSCLC
ACHN renal = tested on: ACHN renal
DMS 273 small cell lung = tested on: DMS 273 small cell lung
SK-MEL-5 melanoma = tested on: SK-MEL-5 melanoma
RPMI-8226 leukemia = tested on: RPMI-8226 leukemia
SNB-78 CNS = tested on: SNB-78 CNS
OVCAR-3 ovarian = tested on: OVCAR-3 ovarian
786-0 renal = tested on: 786-0 renal
LOX IMVI melanoma = tested on: LOX IMVI melanoma
K-562 leukemia = tested on: K-562 leukemia
LXFL 529 NSCLC = tested on: LXFL 529 NSCLC
SF-268 CNS = tested on: SF-268 CNS
CCRF-CEM leukemia = tested on: CCRF-CEM leukemia
OVCAR-8 ovarian = tested on: OVCAR-8 ovarian
COLO 205 colon = tested on: COLO 205 colon
HL-60(TB) leukemia = tested on: HL-60(TB) leukemia
SK-MEL-28 melanoma = tested on: SK-MEL-28 melanoma
IGROV1 ovarian = tested on: IGROV1 ovarian
SF-539 CNS = tested on: SF-539 CNS
OVCAR-4 ovarian = tested on: OVCAR-4 ovarian
SF-295 CNS = tested on: SF-295 CNS
NCI-H460 lung = tested on: NCI-H460 lung
NCI-H23 lung = tested on: NCI-H23 lung
HOP-62 NSCLC = tested on: HOP-62 NSCLC
HCT-15 colon = tested on: HCT-15 colon
SK-MEL-2 melanoma = tested on: SK-MEL-2 melanoma
SN12C renal = tested on: SN12C renal
UACC-257 melanoma = tested on: UACC-257 melanoma
CAKI-1 renal = tested on: CAKI-1 renal
HOP-92 NSCLC = tested on: HOP-92 NSCLC
A498 renal = tested on: A498 renal
MALME-3M melanoma = tested on: MALME-3M melanoma
HCT-116 colon = tested on: HCT-116 colon
KM20L2 colon = tested on: KM20L2 colon
NCI-H522 lung = tested on: NCI-H522 lung
HCC-2998 colon = tested on: HCC-2998 colon

O=C1C(c2ccc([N+](=O)[O-])cc2)=[N+]([O-])c2ccc([N+](=O)[O-])cc21
TGI (U251 CNS): > 100 µM
TGI (SNB-75 CNS): > 100 µM
TGI (EKVX NSCLC): > 100 µM
TGI (UO-31 renal): > 100 µM
TGI (HOP-18 NSCLC): > 100 µM
TGI (KM12 colon): > 100 µM
TGI (SK-OV-3 ovarian): 83.2 µM
TGI (TK-10 renal): > 100 µM
TGI (NCI-H226 lung): > 100 µM
TGI (MOLT-4 leukemia): > 100 µM
TGI (DLD-1 colon): > 100 µM
TGI (SW-620 colon): > 100 µM
TGI (OVCAR-5 ovarian): > 100 µM
TGI (RXF 393 renal): > 100 µM
TGI (SR leukemia): > 100 µM
TGI (M14 melanoma): > 100 µM
TGI (SNB-19 CNS): > 100 µM
TGI (HT29 colon): > 100 µM
TGI (UACC-62 melanoma): 47.5 µM
TGI (RXF-631 renal): > 100 µM
TGI (M19-MEL melanoma): 88.2 µM
TGI (DMS 114 small cell lung): > 100 µM
TGI (A549 NSCLC): > 100 µM
TGI (ACHN renal): > 100 µM
TGI (DMS 273 small cell lung): > 100 µM
TGI (SK-MEL-5 melanoma): > 100 µM
TGI (RPMI-8226 leukemia): > 100 µM
TGI (SNB-78 CNS): > 100 µM
TGI (OVCAR-3 ovarian): 55.8 µM
TGI (786-0 renal): > 100 µM
TGI (LOX IMVI melanoma): > 100 µM
TGI (K-562 leukemia): > 100 µM
TGI (LXFL 529 NSCLC): > 100 µM
TGI (SF-268 CNS): > 100 µM
TGI (CCRF-CEM leukemia): 74.1 µM
TGI (OVCAR-8 ovarian): > 100 µM
TGI (COLO 205 colon): > 100 µM
TGI (HL-60(TB) leukemia): 43.7 µM
TGI (SK-MEL-28 melanoma): > 100 µM
TGI (IGROV1 ovarian): 76.9 µM
TGI (SF-539 CNS): > 100 µM
TGI (OVCAR-4 ovarian): > 100 µM
TGI (SF-295 CNS): > 100 µM
TGI (NCI-H460 lung): > 100 µM
TGI (NCI-H23 lung): > 100 µM

Cc1ccc(N=Nc2c(C)nn(-c3ccccc3)c2-c2ccccc2)c(Br)c1
TGI (SNB-75 CNS): > 100 µM
TGI (EKVX NSCLC): > 100 µM
TGI (UO-31 renal): > 100 µM
TGI (HOP-18 NSCLC): > 100 µM
TGI (KM12 colon): > 100 µM
TGI (HOP-62 NSCLC): > 100 µM
TGI (SK-OV-3 ovarian): > 100 µM
TGI (TK-10 renal): > 100 µM
TGI (NCI-H226 lung): > 100 µM
TGI (HCT-15 colon): > 100 µM
TGI (SK-MEL-2 melanoma): > 100 µM
TGI (MOLT-4 leukemia): > 100 µM
TGI (DLD-1 colon): > 100 µM
TGI (SN12C renal): > 100 µM
TGI (SW-620 colon): > 100 µM
TGI (UACC-257 melanoma): > 100 µM
TGI (SR leukemia): > 100 µM
TGI (M14 melanoma): > 100 µM
TGI (CAKI-1 renal): > 100 µM
TGI (SNB-19 CNS): > 100 µM
TGI (HT29 colon): > 100 µM
TGI (HOP-92 NSCLC): > 100 µM
TGI (UACC-62 melanoma): > 100 µM
TGI (RXF-631 renal): > 100 µM
TGI (M19-MEL melanoma): > 100 µM
TGI (A549 NSCLC): > 100 µM
TGI (ACHN renal): > 100 µM
TGI (A498 renal): > 100 µM
TGI (MALME-3M melanoma): > 100 µM
TGI (HCT-116 colon): > 100 µM
TGI (OVCAR-3 ovarian): > 100 µM
TGI (786-0 renal): > 100 µM
TGI (LOX IMVI melanoma): > 100 µM
TGI (K-562 leukemia): > 100 µM
TGI (LXFL 529 NSCLC): > 100 µM
TGI (SF-268 CNS): > 100 µM
TGI (CCRF-CEM leukemia): > 100 µM
TGI (OVCAR-8 ovarian): > 100 µM
TGI (HL-60(TB) leukemia): > 100 µM
TGI (SK-MEL-28 melanoma): > 100 µM
TGI (IGROV1 ovarian): > 100 µM
TGI (KM20L2 colon): > 100 µM
TGI (SF-539 CNS): > 100 µM
TGI (OVCAR-4 ovarian): > 100 µM
TGI (SF-295 CNS): > 100 µM
TGI (NCI-H522 lung): > 100 µM
TGI (NCI-H460 lung): > 100 µM
TGI (HCC-2998 colon): > 100 µM

CN(C)C(=S)OC(Cn1cncn1)c1ccc(Cl)cc1Cl (stereo not drawn)
TGI (U251 CNS): > 100 µM
TGI (SNB-75 CNS): > 100 µM
TGI (EKVX NSCLC): > 100 µM
TGI (UO-31 renal): > 100 µM
TGI (HOP-18 NSCLC): > 100 µM
TGI (KM12 colon): > 100 µM
TGI (HOP-62 NSCLC): > 100 µM
TGI (SK-OV-3 ovarian): > 100 µM
TGI (TK-10 renal): > 100 µM
TGI (NCI-H226 lung): > 100 µM
TGI (HCT-15 colon): > 100 µM
TGI (SK-MEL-2 melanoma): > 100 µM
TGI (MOLT-4 leukemia): > 100 µM
TGI (DLD-1 colon): > 100 µM
TGI (SN12C renal): > 100 µM
TGI (SW-620 colon): > 100 µM
TGI (OVCAR-5 ovarian): > 100 µM
TGI (UACC-257 melanoma): > 100 µM
TGI (RXF 393 renal): > 100 µM
TGI (M14 melanoma): > 100 µM
TGI (CAKI-1 renal): > 100 µM
TGI (SNB-19 CNS): > 100 µM
TGI (HT29 colon): > 100 µM
TGI (HOP-92 NSCLC): > 100 µM
TGI (UACC-62 melanoma): > 100 µM
TGI (RXF-631 renal): > 100 µM
TGI (M19-MEL melanoma): > 100 µM
TGI (DMS 114 small cell lung): > 100 µM
TGI (A549 NSCLC): > 100 µM
TGI (ACHN renal): > 100 µM
TGI (DMS 273 small cell lung): > 100 µM
TGI (A498 renal): > 100 µM
TGI (SK-MEL-5 melanoma): > 100 µM
TGI (MALME-3M melanoma): > 100 µM
TGI (RPMI-8226 leukemia): > 100 µM
TGI (HCT-116 colon): > 100 µM
TGI (OVCAR-3 ovarian): > 100 µM
TGI (786-0 renal): > 100 µM
TGI (LOX IMVI melanoma): > 100 µM
TGI (K-562 leukemia): > 100 µM
TGI (LXFL 529 NSCLC): > 100 µM
TGI (SF-268 CNS): > 100 µM
TGI (OVCAR-8 ovarian): > 100 µM
TGI (COLO 205 colon): > 100 µM
TGI (HL-60(TB) leukemia): > 100 µM
TGI (SK-MEL-28 melanoma): > 100 µM
TGI (IGROV1 ovarian): > 100 µM
TGI (KM20L2 colon): > 100 µM
TGI (SF-539 CNS): > 100 µM
TGI (OVCAR-4 ovarian): > 100 µM
TGI (SF-295 CNS): > 100 µM
TGI (NCI-H522 lung): > 100 µM
TGI (NCI-H460 lung): > 100 µM
TGI (NCI-H23 lung): > 100 µM
TGI (HCC-2998 colon): > 100 µM
